In patent US7981904B2, “Acetyl CoA carboxylase inhibitors” (Takeda Pharmaceutical Company Limited, priority 2008, dated 2011):

What was measured:
Human ACC2 = target: T1, Human ACC2 (Homo sapiens, UniProt O00763); assay: in vitro enzymatic ACC activity assay (malachite green, absorbance at 620 nm), ACC2; assay type: biochemical; details: recombinant His-tagged human ACC2, 6.4 μg/mL; same method as ACC1
T1 construct: made in house; host or cells: SF-9 insect cells (baculovirus, pFAST-BacHTa)
Protocol: (§1) Provided in Example A is an in vitro enzymatic ACC activity assay for activity against ACC. The binding affinity of the test compound to ACC1 or ACC2 is determined by the changes in absorbance (at 620 nm); […]. It should be noted that a variety of other expression systems and hosts are also suitable for the expression of ACC, as would be readily appreciated by one of skill in the art.
B. Purification of Human ACC2
Human ACC2 cDNA except coding region for mitochondria localization sequence was amplified from human skeletal muscle cDNA by polymerase chain reaction using primers; 5′[…]3′ (SEQ ID NO: 3) and 5′[…]3′ (SEQ ID NO: 4). The amplified DNA fragment was digested by SalI and AflIII, and cloned into pFAST-BacHTa (Invitrogen). Preparation of recombinant vaculovirus, infection of the virus to SF-9 cells and purification of recombinant ACC2 protein with 6×His-tag at the N-terminal were performed in the same method as described above.
(§2) C. Measurement of ACC Activity
(§3) Malachite green solution was prepared by mixing 100 mL of solution A (0.12% malachite green in 5N H2SO4), 25 mL of solution B (7.5% ammonium molybdate) and 2 mL of solution C (11% TWEEN-20).
(§4) ACC1 was diluted to 8 μg/mL in reaction buffer (50 mM HEPES pH7.5, 10 mM MgCl2, 10 mM tripotassium citrate, 2 mM DTT, 0.75 mg/mL fatty acid free BSA) and 10 μL diluted enzyme solution was pored into each well of 384-well clear bottom plate. Test compound was diluted in the reaction buffer and 5 μL of the compound solution was added into each well, and the mixture was incubated at 30° C. for 60 minutes. Reaction was initiated by addition of 5 μL substrate solution (50 mM KHCO3, 200 μM ATP, 200 μM acetyl-CoA). After incubation at 30° C. for 20 minutes, reaction was terminated by addition of 5 μL malachite green solution and absorbance at 620 nm was measured.
ACC2 was diluted to 6.4 μg/mL in reaction buffer, and the activity was measured by the same method as described for ACC1.
(§5) Percent activity at each concentration of compound was calculated from the following equation:
(§6) [formula] where Abs is absorbance, Avg is average.
(§7) Data were subjected to nonlinear regression analysis using GraphPad Prism Software (GraphPad Software Inc.) to obtain IC50 values.

Human ACC1 = target: T2, Human ACC1 (Homo sapiens, UniProt Q13085); assay: in vitro enzymatic ACC activity assay (malachite green, absorbance at 620 nm), ACC1; assay type: biochemical; details: recombinant His-tagged human ACC1, 8 μg/mL; 60 min preincubation, 20 min reaction at 30° C.
T2 construct: made in house; host or cells: SF-9 insect cells (baculovirus, pFAST-BacHTc)
Protocol: as §1
A. Purification of Human ACC1
Human ACC1 cDNA was amplified from human liver cDNA by polymerase chain reaction using primers; 5′[…]3′ (SEQ ID NO. 1) and 5′[…]3′ (SEQ ID NO: 2). The amplified DNA fragment was digested by restriction enzyme SalI and NotI, and cloned into pFAST-BacHTc (Invitrogen). This plasmid DNA was used for preparation of recombinant vaculovirus with BAC-TO-BAC Baculovirus Expression System (Invitrogen).
SF-9 cells were infected with the vaculovirus and cultured at 27° C. for 3 days. Harvested cells were homogenized in buffer A (25 mM HEPES (pH7.5), 130 mM NaCl, 1 mM EDTA, 25 mM sodium glycerophosphate, 1 mM sodium orthovanadate, 10% glycerol, complete protease inhibitor), and subjected to ultracentrifuge at 185700×g for 50 min at 4° C. ACC1 protein with 6×His-tag at the N-terminal was purified from the supernatant using Ni-NTA Super Flow Gel (QIAGEN). Eluted protein was dialysed against buffer B (50 mM HEPES (pH 7.5), 300 mM NaCl, 10 mM MgCl2, 10 mM tripotassium citrate, 2 mM dithiothreitol) and concentrated using Vivaspin20 ultrafiltration tube (Sartorius).
as §2, §3, §4, §5, §6, §7

T1 sequence (O00763 117-2458 limits assumed): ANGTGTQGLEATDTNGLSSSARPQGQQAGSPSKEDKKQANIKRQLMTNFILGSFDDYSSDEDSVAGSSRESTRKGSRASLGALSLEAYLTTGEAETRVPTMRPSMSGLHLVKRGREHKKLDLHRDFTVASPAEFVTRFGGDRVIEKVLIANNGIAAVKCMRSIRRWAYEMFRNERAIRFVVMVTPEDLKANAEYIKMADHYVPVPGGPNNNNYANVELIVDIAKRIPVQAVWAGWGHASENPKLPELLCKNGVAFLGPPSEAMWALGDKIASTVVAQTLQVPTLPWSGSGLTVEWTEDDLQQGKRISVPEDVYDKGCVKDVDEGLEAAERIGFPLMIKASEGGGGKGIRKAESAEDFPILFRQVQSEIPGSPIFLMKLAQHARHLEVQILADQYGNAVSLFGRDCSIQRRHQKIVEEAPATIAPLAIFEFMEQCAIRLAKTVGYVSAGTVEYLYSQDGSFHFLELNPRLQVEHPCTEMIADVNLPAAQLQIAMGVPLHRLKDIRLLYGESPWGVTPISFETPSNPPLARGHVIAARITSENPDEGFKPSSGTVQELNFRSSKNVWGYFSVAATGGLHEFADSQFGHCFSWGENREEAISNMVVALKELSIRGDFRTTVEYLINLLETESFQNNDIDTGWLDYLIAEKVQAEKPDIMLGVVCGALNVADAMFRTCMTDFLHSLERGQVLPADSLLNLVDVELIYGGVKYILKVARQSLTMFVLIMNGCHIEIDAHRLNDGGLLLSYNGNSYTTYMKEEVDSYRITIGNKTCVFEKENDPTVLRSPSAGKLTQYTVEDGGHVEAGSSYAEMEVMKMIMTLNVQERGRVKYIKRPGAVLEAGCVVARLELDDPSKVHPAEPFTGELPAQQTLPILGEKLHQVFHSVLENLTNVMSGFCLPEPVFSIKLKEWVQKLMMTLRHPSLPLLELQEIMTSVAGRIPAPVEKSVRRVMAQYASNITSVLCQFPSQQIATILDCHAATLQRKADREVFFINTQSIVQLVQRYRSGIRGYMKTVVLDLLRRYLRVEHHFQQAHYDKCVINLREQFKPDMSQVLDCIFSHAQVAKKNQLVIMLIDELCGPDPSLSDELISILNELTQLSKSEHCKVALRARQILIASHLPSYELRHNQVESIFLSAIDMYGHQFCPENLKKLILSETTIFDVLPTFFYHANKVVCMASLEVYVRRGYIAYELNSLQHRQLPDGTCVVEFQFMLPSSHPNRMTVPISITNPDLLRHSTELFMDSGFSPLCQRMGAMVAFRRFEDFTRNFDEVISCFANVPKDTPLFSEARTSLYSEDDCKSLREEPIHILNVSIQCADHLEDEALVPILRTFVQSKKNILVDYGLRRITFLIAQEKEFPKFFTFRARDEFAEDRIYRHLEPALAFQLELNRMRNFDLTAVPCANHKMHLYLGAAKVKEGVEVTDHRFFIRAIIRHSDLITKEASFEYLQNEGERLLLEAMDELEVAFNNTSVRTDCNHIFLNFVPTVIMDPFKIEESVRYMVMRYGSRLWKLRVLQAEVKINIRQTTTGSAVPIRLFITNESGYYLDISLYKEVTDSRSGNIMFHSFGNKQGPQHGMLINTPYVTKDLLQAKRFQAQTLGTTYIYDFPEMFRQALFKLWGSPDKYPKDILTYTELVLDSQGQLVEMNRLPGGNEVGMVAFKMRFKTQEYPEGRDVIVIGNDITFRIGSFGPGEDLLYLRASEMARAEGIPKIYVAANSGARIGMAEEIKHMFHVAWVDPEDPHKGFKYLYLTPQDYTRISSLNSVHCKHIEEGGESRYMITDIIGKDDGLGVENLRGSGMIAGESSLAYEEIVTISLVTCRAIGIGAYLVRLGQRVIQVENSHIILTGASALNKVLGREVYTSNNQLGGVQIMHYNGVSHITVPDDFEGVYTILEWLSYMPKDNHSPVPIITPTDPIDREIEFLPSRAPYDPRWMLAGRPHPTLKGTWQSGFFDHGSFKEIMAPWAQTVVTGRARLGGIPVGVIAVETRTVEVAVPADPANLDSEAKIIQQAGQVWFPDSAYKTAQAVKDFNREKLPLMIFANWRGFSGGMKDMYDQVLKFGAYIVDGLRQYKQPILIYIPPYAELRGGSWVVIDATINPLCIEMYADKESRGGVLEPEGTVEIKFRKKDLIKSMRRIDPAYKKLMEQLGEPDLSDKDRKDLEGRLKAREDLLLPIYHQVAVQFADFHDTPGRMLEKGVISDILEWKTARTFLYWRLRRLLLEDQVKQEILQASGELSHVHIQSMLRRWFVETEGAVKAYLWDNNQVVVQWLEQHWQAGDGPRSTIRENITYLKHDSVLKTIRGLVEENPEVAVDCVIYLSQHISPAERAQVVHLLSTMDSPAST

Structure (SMILES) | IC50 (Human ACC2) [µM] | IC50 (Human ACC1) [µM]
CCNC(=O)Nc1sc2ccccc2c1C(=O)N1CCC2(CC1)N=C(COc1ccccc1C(N)=O)NC2=O [Compound 27, 2-((8-(2-(3-ethylureido)benzo[b]thiophene-3-carbonyl)-4-oxo-1,3,8-triazaspiro[4.5]dec-1-en-2-yl)methoxy)benzamide] | < 1 | > 10
CCNC(=O)Nc1sc2ccccc2c1C(=O)N1CCC2(CC1)N=C(COC1CCCCC1)NC2=O [Compound 28, 1-(3-(2-(cyclohexyloxymethyl)-4-oxo-1,3,8-triazaspiro[4.5]dec-1-enecarbonyl)benzo[b]thiophen-2-yl)-3-ethylurea] | < 1 | 1 to 10
CCNC(=O)Nc1sc2ccccc2c1C(=O)N1CCC2(CC1)N=C(COC(C)C)NC2=O [Compound 29, 1-ethyl-3-(3-(2-(isopropoxymethyl)-4-oxo-1,3,8-triazaspiro[4.5]dec-1-enecarbonyl)benzo[b]thiophen-2-yl)urea] | 1 to 10 | 1 to 10
CCNC(=O)Nc1sc2ccccc2c1C(=O)N1CCC2(CC1)N=C(COCC(C)C)NC2=O [Compound 30, 1-ethyl-3-(3-(2-(isobutoxymethyl)-4-oxo-1,3,8-triazaspiro[4.5]dec-1-enecarbonyl)benzo[b]thiophen-2-yl)urea] | < 1 | 1 to 10
CCNC(=O)Nc1sc2c(OC)cccc2c1C(=O)N1CCC2(CC1)N=C(COCC(C)C)NC2=O [Compound 31, 1-ethyl-3-(3-(2-(isobutoxymethyl)-4-oxo-1,3,8-triazaspiro[4.5]dec-1-enecarbonyl)-7-methoxybenzo[b]thiophen-2-yl)urea] | < 1 | < 1
CCNC(=O)Nc1sc2c(OC)cccc2c1C(=O)N1CCC2(CC1)N=C(COC1CCCCC1)NC2=O [Compound 32, 1-(3-(2-(cyclohexyloxymethyl)-4-oxo-1,3,8-triazaspiro[4.5]dec-1-enecarbonyl)-7-methoxybenzo[b]thiophen-2-yl)-3-ethylurea] | < 1 | < 1
CCNC(=O)Nc1sc2ccccc2c1C(=O)N1CCC2(CC1)N=C(Cn1ccccc1=O)NC2=O [Compound 33, 1-ethyl-3-(3-(4-oxo-2-((2-oxopyridin-1(2 H)-yl)methyl)-1,3,8-triazaspiro[4.5]dec-1-enecarbonyl)benzo[b]thiophen-2-yl)urea] | 1 to 10 | > 10
CCNC(=O)Nc1sc2ccccc2c1C(=O)N1CCC2(CC1)N=C(Cn1cc(CN)nn1)NC2=O [Compound 34, 1-(3-(2-((4-(aminomethyl)-1 H-1,2,3-triazol-1-yl)methyl)-4-oxo-1,3,8-triazaspiro[4.5]dec-1-enecarbonyl)benzo[b]thiophen-2-yl)-3-ethylurea] | > 10 | > 10
CCNC(=O)Nc1sc2ccccc2c1C(=O)N1CCC2(CC1)N=C(Cn1cc(CN(C)C)nn1)NC2=O [Compound 35, 1-(3-(2-((4-((dimethylamino)methyl)-1 H-1,2,3-triazol-1-yl)methyl)-4-oxo-1,3,8-triazaspiro[4.5]dec-1-enecarbonyl)benzo[b]thiophen-2-yl)-3-ethylurea] | 1 to 10 | > 10
CCNC(=O)Nc1sc2ccccc2c1C(=O)N1CCC2(CC1)N=C(Cn1cc(C(C)(C)C)nn1)NC2=O [Compound 36, 1-(3-(2-((4-tert-butyl-1 H-1,2,3-triazol-1-yl)methyl)-4-oxo-1,3,8-triazaspiro[4.5]dec-1-enecarbonyl)benzo[b]thiophen-2-yl)-3-ethylurea] | < 1 | 1 to 10
CCNC(=O)Nc1sc2ccccc2c1C(=O)N1CCC2(CC1)N=C(Cn1cc(CO)nn1)NC2=O [Compound 37, 1-ethyl-3-(3-(2-((4-(hydroxymethyl)-1 H-1,2,3-triazol-1-yl)methyl)-4-oxo-1,3,8-triazaspiro[4.5]dec-1-enecarbonyl)benzo[b]thiophen-2-yl)urea] | 1 to 10 | > 10
CCNC(=O)Nc1sc2ccccc2c1C(=O)N1CCC2(CC1)N=C(Cn1cc(C3CC3)nn1)NC2=O [Compound 38, 1-(3-(2-((4-cyclopropyl-1 H-1,2,3-triazol-1-yl)methyl)-4-oxo-1,3,8-triazaspiro[4.5]dec-1-enecarbonyl)benzo[b]thiophen-2-yl)-3-ethylurea] | < 1 | 1 to 10
